From PubChem BioAssay (NCI)
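Growth conditions: 96-well plates. Treatment: test compound, 48 hours, 5 concentrations. Analysis: linear interpolation between bracketing concentrations; unreached endpoints set to highest concentration. GI50 marks 50% less growth. At the TGI there is no net growth.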

Legend:
Experiment in all cases: inhibition of tumour cell growth, NCI panel, 48 h
786-0 renal = test system: 786-0 renal
A498 renal = test system: A498 renal
A549 NSCLC = test system: A549 NSCLC
ACHN renal = test system: ACHN renal
BT-549 breast = test system: BT-549 breast
CAKI-1 renal = test system: CAKI-1 renal
CCRF-CEM leukemia = test system: CCRF-CEM leukemia
COLO 205 colon = test system: COLO 205 colon
DU-145 prostate = test system: DU-145 prostate
EKVX NSCLC = test system: EKVX NSCLC
HCC-2998 colon = test system: HCC-2998 colon
HCT-116 colon = test system: HCT-116 colon
HCT-15 colon = test system: HCT-15 colon
HL-60(TB) leukemia = test system: HL-60(TB) leukemia
HOP-62 NSCLC = test system: HOP-62 NSCLC
HOP-92 NSCLC = test system: HOP-92 NSCLC
HS 578T breast = test system: HS 578T breast
HT29 colon = test system: HT29 colon
IGROV1 ovarian = test system: IGROV1 ovarian
K-562 leukemia = test system: K-562 leukemia
KM12 colon = test system: KM12 colon
LOX IMVI melanoma = test system: LOX IMVI melanoma
M14 melanoma = test system: M14 melanoma
MALME-3M melanoma = test system: MALME-3M melanoma
MCF7 breast = test system: MCF7 breast
MDA-MB-231 breast = test system: MDA-MB-231 breast
MDA-MB-435 = test system: MDA-MB-435
MDA-MB-468 breast = test system: MDA-MB-468 breast
MOLT-4 leukemia = test system: MOLT-4 leukemia
NCI-H226 lung = test system: NCI-H226 lung
NCI-H23 lung = test system: NCI-H23 lung
NCI-H460 lung = test system: NCI-H460 lung
NCI-H522 lung = test system: NCI-H522 lung
NCI/ADR-RES ovarian = test system: NCI/ADR-RES ovarian
OVCAR-3 ovarian = test system: OVCAR-3 ovarian
OVCAR-4 ovarian = test system: OVCAR-4 ovarian
OVCAR-5 ovarian = test system: OVCAR-5 ovarian
OVCAR-8 ovarian = test system: OVCAR-8 ovarian
PC-3 prostate = test system: PC-3 prostate
RPMI-8226 leukemia = test system: RPMI-8226 leukemia
RXF 393 renal = test system: RXF 393 renal
SF-268 CNS = test system: SF-268 CNS
SF-295 CNS = test system: SF-295 CNS
SF-539 CNS = test system: SF-539 CNS
SK-MEL-2 melanoma = test system: SK-MEL-2 melanoma
SK-MEL-28 melanoma = test system: SK-MEL-28 melanoma
SK-MEL-5 melanoma = test system: SK-MEL-5 melanoma
SK-OV-3 ovarian = test system: SK-OV-3 ovarian
SN12C renal = test system: SN12C renal
SNB-19 CNS = test system: SNB-19 CNS
SNB-75 CNS = test system: SNB-75 CNS
SR leukemia = test system: SR leukemia
SW-620 colon = test system: SW-620 colon
T-47D breast = test system: T-47D breast
TK-10 renal = test system: TK-10 renal
U251 CNS = test system: U251 CNS
UACC-257 melanoma = test system: UACC-257 melanoma
UACC-62 melanoma = test system: UACC-62 melanoma
UO-31 renal = test system: UO-31 renal

C=C1CCC2C3(C)COC(c4cccc(F)c4)OC3CCC2(C)C1C/C=C1/C(=O)OCC1O (stereo not drawn)
GI50 (786-0 renal): 2.69 µM
TGI (786-0 renal): 7.51 µM
GI50 (A498 renal): 14.1 µM
TGI (A498 renal): 27.7 µM
GI50 (A549 NSCLC): 7.04 µM
TGI (A549 NSCLC): 22.7 µM
GI50 (ACHN renal): 4.48 µM
TGI (ACHN renal): 15.8 µM
GI50 (BT-549 breast): 2.7 µM
TGI (BT-549 breast): 7.09 µM
GI50 (CAKI-1 renal): 7.43 µM
TGI (CAKI-1 renal): 20.2 µM
GI50 (CCRF-CEM leukemia): 2.35 µM
TGI (CCRF-CEM leukemia): 7.34 µM
GI50 (COLO 205 colon): 4.09 µM
TGI (COLO 205 colon): 15.6 µM
GI50 (DU-145 prostate): 6.21 µM
TGI (DU-145 prostate): 18.5 µM
GI50 (EKVX NSCLC): 16.5 µM
TGI (EKVX NSCLC): 30.8 µM
GI50 (HCC-2998 colon): 8.09 µM
TGI (HCC-2998 colon): 20.9 µM
GI50 (HCT-116 colon): 1.85 µM
TGI (HCT-116 colon): 3.62 µM
GI50 (HCT-15 colon): 2.61 µM
TGI (HCT-15 colon): 8.15 µM
GI50 (HL-60(TB) leukemia): 1.98 µM
TGI (HL-60(TB) leukemia): 6.83 µM
GI50 (HOP-62 NSCLC): 17.3 µM
TGI (HOP-62 NSCLC): 31.6 µM
GI50 (HOP-92 NSCLC): 6.48 µM
TGI (HOP-92 NSCLC): 21.2 µM
GI50 (HS 578T breast): 4.62 µM
TGI (HS 578T breast): 39.7 µM
GI50 (HT29 colon): 2.19 µM
TGI (HT29 colon): 4.75 µM
GI50 (IGROV1 ovarian): 10.3 µM
TGI (IGROV1 ovarian): 23.2 µM
GI50 (K-562 leukemia): 3.39 µM
TGI (K-562 leukemia): 16.1 µM
GI50 (KM12 colon): 3.92 µM
TGI (KM12 colon): 14.8 µM
GI50 (LOX IMVI melanoma): 1.67 µM
TGI (LOX IMVI melanoma): 3.08 µM
GI50 (M14 melanoma): 6.93 µM
TGI (M14 melanoma): 21.3 µM
GI50 (MALME-3M melanoma): 13.2 µM
TGI (MALME-3M melanoma): 26.2 µM
GI50 (MCF7 breast): 2.25 µM
TGI (MCF7 breast): 7.71 µM
GI50 (MDA-MB-231 breast): 2.61 µM
TGI (MDA-MB-231 breast): 7.25 µM
GI50 (MDA-MB-435): 2.61 µM
TGI (MDA-MB-435): 9.71 µM
GI50 (MDA-MB-468 breast): 2.11 µM
TGI (MDA-MB-468 breast): 6.28 µM
GI50 (MOLT-4 leukemia): 3.24 µM
TGI (MOLT-4 leukemia): 12 µM
GI50 (NCI-H226 lung): 1.85 µM
TGI (NCI-H226 lung): 3.87 µM
GI50 (NCI-H23 lung): 11 µM
TGI (NCI-H23 lung): 24.2 µM
GI50 (NCI-H460 lung): 4.03 µM
TGI (NCI-H460 lung): 18.6 µM
GI50 (NCI-H522 lung): 1.71 µM
TGI (NCI-H522 lung): 4 µM
GI50 (NCI/ADR-RES ovarian): 1.98 µM
TGI (NCI/ADR-RES ovarian): 4.08 µM
GI50 (OVCAR-3 ovarian): 1.87 µM
TGI (OVCAR-3 ovarian): 4.08 µM
GI50 (OVCAR-4 ovarian): 4.32 µM
TGI (OVCAR-4 ovarian): 18.3 µM
GI50 (OVCAR-5 ovarian): 4.04 µM
TGI (OVCAR-5 ovarian): 15.9 µM
GI50 (OVCAR-8 ovarian): 1.86 µM
TGI (OVCAR-8 ovarian): 4.27 µM
GI50 (PC-3 prostate): 3.3 µM
TGI (PC-3 prostate): 15.3 µM
GI50 (RPMI-8226 leukemia): 2.58 µM
TGI (RPMI-8226 leukemia): 6.78 µM
GI50 (RXF 393 renal): 5.88 µM
TGI (RXF 393 renal): 19.6 µM
GI50 (SF-268 CNS): 6 µM
TGI (SF-268 CNS): 19.8 µM
GI50 (SF-295 CNS): 3.87 µM
TGI (SF-295 CNS): 15.1 µM
GI50 (SF-539 CNS): 1.96 µM
TGI (SF-539 CNS): 3.81 µM
GI50 (SK-MEL-2 melanoma): 5.95 µM
TGI (SK-MEL-2 melanoma): 19.1 µM
GI50 (SK-MEL-28 melanoma): 5.58 µM
TGI (SK-MEL-28 melanoma): 18 µM
GI50 (SK-MEL-5 melanoma): 11 µM
TGI (SK-MEL-5 melanoma): 23 µM
GI50 (SK-OV-3 ovarian): 16.1 µM
TGI (SK-OV-3 ovarian): 29.9 µM
GI50 (SN12C renal): 2.95 µM
TGI (SN12C renal): 9.4 µM
GI50 (SNB-19 CNS): 13.1 µM
TGI (SNB-19 CNS): 25.9 µM
GI50 (SNB-75 CNS): 2.13 µM
TGI (SNB-75 CNS): 10.8 µM
GI50 (SR leukemia): 3.52 µM
TGI (SR leukemia): 17.7 µM
GI50 (SW-620 colon): 1.48 µM
TGI (SW-620 colon): 3.26 µM
GI50 (T-47D breast): 3.61 µM
TGI (T-47D breast): 16 µM
GI50 (TK-10 renal): 14.8 µM
TGI (TK-10 renal): 28.2 µM
GI50 (U251 CNS): 2.25 µM
TGI (U251 CNS): 6.24 µM
GI50 (UACC-257 melanoma): 5.51 µM
TGI (UACC-257 melanoma): 19.7 µM
GI50 (UACC-62 melanoma): 4.68 µM
TGI (UACC-62 melanoma): 16.9 µM
GI50 (UO-31 renal): 5.14 µM
TGI (UO-31 renal): 18.2 µM
